Measurements from article PMC6753678, “Fueling Open Innovation for Malaria Transmission-Blocking Drugs: Hundreds of Molecules Targeting Early Parasite Mosquito Stages” (Frontiers in Microbiology, 2019).
pIC50: −log10 of the molar value. Where two headings read alike, the source gives them in different places.

How the values were obtained:
[1] = test system: P. berghei ookinete development; settings: for % inhibition, Replicate A / % inhibition, Replicate B: primary screen at 1 μM
HepG2 cells = assay: HepG2 cytotoxicity assay; settings: for Pb ODA (this manuscript) HepG2 cytoxicity: HepG2 cytotoxicity listed with the Pb ODA data set (this manuscript); for pIC50: read-out: HepG2 cytotoxicity assay IC50, dose response confirmation; for Unified cytotox: HepG2 values of the three screens unified
Summary of the method: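 Here viability after a 48 h compound incubation (37°C, humidified 5% CO2) is measured by fluorescence and expressed as percent inhibition, with doxorubicin at 50 μM and DMSO as the bounding controls.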

[2] = test system: 3D7-strain P. falciparum asexual parasites; assay: P. falciparum asexual growth inhibition assay (Pf GIA); format: cell-based, Plasmodium falciparum; settings: dose response confirmation; read-out: Pf asexual growth inhibition assays IC50
Summary of the method: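 Read-out was lactate dehydrogenase activity measured by absorbance at 650 nm after freezing and thawing, against 50 μM chloroquine and DMSO controls. Before that, asexual 3D7 cultures (0.25% parasitemia, 2% hematocrit) had 72 h dose-response compound exposure at 37°C in 5% CO2/5% O2/90% N2; three independent replicates averaged.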

[3] = read-out: Pb ODA (this manuscript) IC50, P. berghei ookinete development assay, this manuscript
[4] = read-out: Pb Ookinete development assay IC50, dose response confirmation
[5] = read-out: Pb ODA IC50, this manuscript

SMILES: COc1nc2c(CCN3CCC(NCc4ccc5c(n4)NC(=O)CO5)CC3)c(Cl)cnc2cc1F.Cl [TCMDC-135766]
- Is compound selective in assay? Pb ODA active? [1]: 1 (key: 1: YES; 0: NO)
- % inhibition, Replicate A [1]: 65.11%
- % inhibition, Replicate B [1]: 58.19%
- pIC50 [1, 3]: 5.43
- pIC50 [1, 4]: 5.43
- Pb ODA (this manuscript) HepG2 cytoxicity (HepG2 cells): 42.66 µM
- pIC50 (HepG2 cells): 4.37
- pIC50 [2]: 5.56

SMILES: COc1nc2c(CCN3CCC(NCc4ccc5c(c4)NCCO5)CC3)c(Cl)cnc2cc1F.Cl [TCMDC-135768]
- Is compound selective in assay? Pb ODA active? [1]: 0 (key: 1: YES; 0: NO)
- % inhibition, Replicate A [1]: 14.93%
- % inhibition, Replicate B [1]: 54.54%
- pIC50 [1, 3]: 5.45
- pIC50 [1, 4]: 5.45
- Pb ODA (this manuscript) HepG2 cytoxicity (HepG2 cells): 14.45 µM
- pIC50 (HepG2 cells): 4.84
- pIC50 [2]: 6.23

SMILES: Cc1[nH]c(C)c([N+](=O)[O-])c(=O)c1-c1ccc(Oc2ccccc2)cc1 [TCMDC-135779]
- Is compound selective in assay? Pb ODA active? [1]: 1 (key: 1: YES; 0: NO)
- % inhibition, Replicate A [1]: 85.12%
- % inhibition, Replicate B [1]: 87.09%
- pIC50 [1, 4]: 6.27
- Pb ODA (this manuscript) HepG2 cytoxicity (HepG2 cells): 100.00 µM
- pIC50 (HepG2 cells): 4.00
- pIC50 [2]: 6.09

SMILES: Cc1[nH]c(C)c(-c2ccc(/C=C/c3ccccn3)cc2)c(=O)c1Cl [TCMDC-135787]
- Is compound selective in assay? Pb ODA active? ([1]; 1: YES, 0: NO): 1 (1: YES)
- % inhibition, Replicate A [1]: 50.60%
- % inhibition, Replicate B [1]: 51.03%
- pIC50 [1, 4]: 5.98
- Unified cytotox (HepG2 cells): 100.00 µM
- pIC50 (HepG2 cells): 4.00
- pIC50 [2]: 5.90

SMILES: COc1ccc(CCc2ccc(-c3c(C)[nH]c(C)c(Cl)c3=O)cc2)cc1OC [TCMDC-135789]
- Is compound selective in assay? Pb ODA active? ([1]; 1: YES, 0: NO): 1 (1: YES)
- % inhibition, Replicate A [1]: 97.42%
- % inhibition, Replicate B [1]: 111.57%
- pIC50 [1, 5]: 6.55
- pIC50 [1, 4]: 6.56
- Unified cytotox (HepG2 cells): 100.00 µM
- pIC50 (HepG2 cells): 4.00
- pIC50 [2]: 6.92

SMILES: Cc1[nH]c(C)c(-c2ccc(OCCCc3ccccn3)cc2)c(=O)c1Br.Cl [TCMDC-135795]
- Is compound selective in assay? Pb ODA active? [1]: 0 (key: 1: YES; 0: NO)
- % inhibition, Replicate A [1]: 72.29%
- % inhibition, Replicate B [1]: 89.65%
- pIC50 [1, 3]: 6.23
- pIC50 [1, 4]: 6.23
- Pb ODA (this manuscript) HepG2 cytoxicity (HepG2 cells): 0.17 µM
- pIC50 (HepG2 cells): 6.77
- pIC50 [2]: 8.18

SMILES: Cc1[nH]c(C)c(-c2ccc(OCc3ccccc3C(F)(F)F)nc2)c(=O)c1Br [TCMDC-135796]
- Is compound selective in assay? Pb ODA active? ([1]; 1: YES, 0: NO): 1 (1: YES)
- % inhibition, Replicate A [1]: 84.05%
- % inhibition, Replicate B [1]: 98.42%
- pIC50 [1, 5]: 7.40
- pIC50 [1, 4]: 7.38
- HepG2 cytoxicity (Pb ODA, this manuscript) (HepG2 cells): 3.02 µM
- Unified cytotox (HepG2 cells): 3.02 µM
- pIC50 (HepG2 cells): 5.52
- pIC50 [2]: 7.44

SMILES: COc1nc2c(CCN3CC[C@H](NCc4ccc5c(c4)NC(=O)CO5)[C@H](O)C3)c(Cl)cnc2cc1F.Cl [TCMDC-135805]
- Is compound selective in assay? Pb ODA active? [1]: 1 (key: 1: YES; 0: NO)
- % inhibition, Replicate A [1]: 46.55%
- % inhibition, Replicate B [1]: 63.06%
- pIC50 [1, 4]: 6.11
- Pb ODA (this manuscript) HepG2 cytoxicity (HepG2 cells): 12.02 µM
- pIC50 (HepG2 cells): 4.92
- pIC50 [2]: 5.88

SMILES: Cc1[nH]c(C)c(-c2ccc(OCc3cc(C(F)(F)F)cc(C(F)(F)F)c3)nc2)c(=O)c1Cl [TCMDC-135814]
- Is compound selective in assay? Pb ODA active? ([1]; 1: YES, 0: NO): 1 (1: YES)
- % inhibition, Replicate A [1]: 68.02%
- % inhibition, Replicate B [1]: 98.05%
- pIC50 [1, 5]: 6.80
- pIC50 [1, 4]: 6.79
- HepG2 cytoxicity (Pb ODA, this manuscript) (HepG2 cells): 1.66 µM
- Unified cytotox (HepG2 cells): 1.66 µM
- pIC50 (HepG2 cells): 5.78
- pIC50 [2]: 6.73

SMILES: Cc1[nH]c(C)c(-c2ccc(OCc3cc(C(F)(F)F)cc(C(F)(F)F)c3)nc2)c(=O)c1Br [TCMDC-135815]
- Is compound selective in assay? Pb ODA active? ([1]; 1: YES, 0: NO): 0 (0: NO)
- % inhibition, Replicate A [1]: 74.97%
- % inhibition, Replicate B [1]: 105.72%
- pIC50 [1, 5]: 6.92
- pIC50 [1, 4]: 6.91
- HepG2 cytoxicity (Pb ODA, this manuscript) (HepG2 cells): 0.71 µM
- Unified cytotox (HepG2 cells): 0.71 µM
- pIC50 (HepG2 cells): 6.15
- pIC50 [2]: 6.55

SMILES: CCCCCCCc1ccc(-c2c(C)[nH]c(C)c(Cl)c2=O)cn1 [TCMDC-135816]
- Is compound selective in assay? Pb ODA active? ([1]; 1: YES, 0: NO): 1 (1: YES)
- % inhibition, Replicate A [1]: 56.53%
- % inhibition, Replicate B [1]: 81.98%
- pIC50 [1, 5]: 6.24
- pIC50 [1, 4]: 6.24
- HepG2 cytoxicity (Pb ODA, this manuscript) (HepG2 cells): 30.90 µM
- Unified cytotox (HepG2 cells): 30.90 µM
- pIC50 (HepG2 cells): 4.51
- pIC50 [2]: 6.45

SMILES: Cc1[nH]c(C)c(-c2ccc(-c3ccccc3C(F)(F)F)nc2)c(=O)c1Br [TCMDC-135881]
- Is compound selective in assay? Pb ODA active? ([1]; 1: YES, 0: NO): 1 (1: YES)
- % inhibition, Replicate A [1]: 87.53%
- % inhibition, Replicate B [1]: 97.69%
- pIC50 [1, 5]: 6.01
- pIC50 [1, 4]: 6.01
- Unified cytotox (HepG2 cells): 100.00 µM
- pIC50 (HepG2 cells): 4.00
- pIC50 [2]: 6.72
